{
  "source": "patent US20250011368A1",
  "about": "“DLL3 TARGETING PEPTIDES AND CONSTRUCTS THEREOF” (MARIANA ONCOLOGY INC., priority 2023, published 2025)",
  "note": "pKd: −log10 of the molar value. Numbered stars: 1 amine (or outer) side, 2 acyl side, 3 side chain; on linkers, the order of the positions; unused ones are H or OH. Bridge positions count the residues as written; N and C are the ends. Square brackets hold non-standard residues; d marks the D form. Peptide text beside a SMILES is read from it. * marks the point of attachment. ξ: configuration not given here. DOTA = O=C(O)CN1CCN(CC(=O)O)CCN(CC(=O)*)CCN(CC(=O)O)CC1; Trp(7-OMe) = COc1cccc2c(C[C@H](N)C(=O)O)c[nH]c12; Trp(7-Me) = Cc1cccc2c(C[C@H](N)C(=O)O)c[nH]c12; 2Nal = N[C@@H](Cc1ccc2ccccc2c1)C(=O)O; C12 diacid = O=C(O)CCCCCCCCCCC(=O)*; Palmitoyl = CCCCCCCCCCCCCCCC(=O)*; NMeL = CN[C@@H](CC(C)C)C(=O)O; NMeK = CN[C@@H](CCCCN)C(=O)O; Lauroyl = CCCCCCCCCCCC(=O)*; CH2 = C([*:1])[*:2]; ξP = O=C(O)C1CCCN1",
  "data": [
    {"biological_target": "T1, human DLL3 (Homo sapiens, UniProt Q9NYJ7)", "T1 sequence (Q9NYJ7 27-618)": "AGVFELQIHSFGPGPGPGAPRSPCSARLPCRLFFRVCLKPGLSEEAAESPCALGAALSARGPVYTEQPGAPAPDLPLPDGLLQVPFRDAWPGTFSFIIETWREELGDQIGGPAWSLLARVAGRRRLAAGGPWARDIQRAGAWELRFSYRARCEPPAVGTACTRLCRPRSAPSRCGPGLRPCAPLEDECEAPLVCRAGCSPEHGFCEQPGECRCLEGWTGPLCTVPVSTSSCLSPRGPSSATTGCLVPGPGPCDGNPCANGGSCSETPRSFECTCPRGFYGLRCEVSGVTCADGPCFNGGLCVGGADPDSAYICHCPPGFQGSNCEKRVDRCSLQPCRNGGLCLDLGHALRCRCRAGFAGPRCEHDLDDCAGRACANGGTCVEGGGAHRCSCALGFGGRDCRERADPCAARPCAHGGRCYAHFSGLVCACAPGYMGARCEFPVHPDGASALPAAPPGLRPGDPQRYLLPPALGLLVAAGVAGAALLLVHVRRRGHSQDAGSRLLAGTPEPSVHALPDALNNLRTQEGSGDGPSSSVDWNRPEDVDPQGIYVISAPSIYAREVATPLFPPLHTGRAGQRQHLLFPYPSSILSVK", "assay": "Affinity determination by Surface Plasmon Resonance (SPR)", "assay_type": "binding", "details": "25° C., biotinylated human DLL3 immobilized on streptavidin sensor chip, 1:1 binding model; read-out: SPR KD", "how_it_was_run": "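Kinetic and affinity constants were derived by fitting sensorgrams to a 1:1 binding model. Graded compound concentrations flowed at 100 μL/minute in 20 mM phosphate running buffer with 2% DMSO over streptavidin-immobilized biotinylated human DLL3, reference-subtracted.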", "values": [
      {"smiles": "CC[C@H](C)[C@H](NC(=O)[C@@H](NC(=O)[C@H](Cc1c[nH]c2ccccc12)NC(C)=O)[C@@H](C)O)C(=O)N[C@H]1CSSC[C@@H](C(=O)N[C@@H](Cc2c[nH]c3ccccc23)C(=O)N2CCC[C@H]2C(=O)N[C@H](CCCCNC(=O)CN2CCN(CC(=O)O)CCN(CC(=O)O)CCN(CC(=O)O)CC2)C(N)=O)NC(=O)[C@H](CC(=O)O)NC(=O)[C@H](Cc2cnc[nH]2)NC(=O)[C@H](Cc2c[nH]c3c(C)cccc23)NC(=O)[C@H](CC(N)=O)NC(=O)[C@H](CC(N)=O)NC1=O", "note": "[compound 295, Ac-W-T-I-C(3)-N-N-(7-Me-W)-H-D-C(3)-W-P-[D-Lys(DOTA)]-NH2] (Ac-WTICNN[Trp(7-Me)]HDCWP[dK](DOTA)-NH2; disulfide 4-10)", "pKd": "> 9.00"},
      {"smiles": "CC[C@H](C)[C@H](NC(=O)[C@@H](NC(=O)[C@H](Cc1c[nH]c2ccccc12)NC(C)=O)[C@@H](C)O)C(=O)N[C@H]1CSSC[C@@H](C(=O)N[C@@H](Cc2c[nH]c3ccccc23)C(=O)N2CCC[C@H]2C(=O)N[C@H](CCCCNC(=O)CN2CCN(CC(=O)O)CCN(CC(=O)O)CCN(CC(=O)O)CC2)C(N)=O)NC(=O)[C@H](CC(=O)O)NC(=O)[C@H](Cc2cnc[nH]2)NC(=O)[C@H](Cc2c[nH]c3c(OC)cccc23)NC(=O)[C@H](CC(N)=O)NC(=O)[C@H](CC(N)=O)NC1=O", "note": "[compound 296, Ac-W-T-I-C(3)-N-N-(7-MeO-W)-H-D-C(3)-W-P-[D-Lys(DOTA)]-NH2] (Ac-WTICNN[Trp(7-OMe)]HDCWP[dK](DOTA)-NH2; disulfide 4-10)", "pKd": "> 9.00"},
      {"smiles": "CC[C@H](C)[C@H](NC(=O)[C@@H](NC(=O)[C@H](Cc1c[nH]c2ccccc12)NC(C)=O)[C@@H](C)O)C(=O)N[C@H]1CSSC[C@@H](C(=O)N[C@@H](Cc2c[nH]c3c(C)cccc23)C(=O)N2CCC[C@H]2C(=O)N[C@H](CCCCNC(=O)CN2CCN(CC(=O)O)CCN(CC(=O)O)CCN(CC(=O)O)CC2)C(N)=O)NC(=O)[C@H](CC(=O)O)NC(=O)[C@H](Cc2cnc[nH]2)NC(=O)[C@H](Cc2c[nH]c3ccccc23)NC(=O)[C@H](CC(N)=O)NC(=O)[C@H](CC(N)=O)NC1=O", "note": "[compound 298, Ac-W-T-I-C(3)-N-N-W-H-D-C(3)-(7-Me-W)-P-[D-Lys(DOTA)]-NH2] (Ac-WTICNNWHDC[Trp(7-Me)]P[dK](DOTA)-NH2; disulfide 4-10)", "pKd": "> 9.00"},
      {"smiles": "CC[C@H](C)[C@H](NC(=O)[C@@H](NC(=O)[C@H](Cc1c[nH]c2ccccc12)NC(C)=O)[C@@H](C)O)C(=O)N[C@H]1CSSC[C@@H](C(=O)N[C@@H](Cc2c[nH]c3c(OC)cccc23)C(=O)N2CCC[C@H]2C(=O)N[C@H](CCCCNC(=O)CN2CCN(CC(=O)O)CCN(CC(=O)O)CCN(CC(=O)O)CC2)C(N)=O)NC(=O)[C@H](CC(=O)O)NC(=O)[C@H](Cc2cnc[nH]2)NC(=O)[C@H](Cc2c[nH]c3ccccc23)NC(=O)[C@H](CC(N)=O)NC(=O)[C@H](CC(N)=O)NC1=O", "note": "[compound 299, Ac-W-T-I-C(3)-N-N-W-H-D-C(3)-(7-MeO-W)-P-[D-Lys(DOTA)]-NH2] (Ac-WTICNNWHDC[Trp(7-OMe)]P[dK](DOTA)-NH2; disulfide 4-10)", "pKd": "> 9.00"},
      {"smiles": "CC[C@H](C)[C@H](NC(=O)[C@@H](NC(=O)[C@H](Cc1c[nH]c2ccccc12)NC(C)=O)[C@@H](C)O)C(=O)N[C@H]1CSCSC[C@@H](C(=O)N[C@@H](Cc2c[nH]c3ccccc23)C(=O)N2CCCC2C(=O)N[C@@H](CCCCNC(=O)CN2CCN(CC(=O)O)CCN(CC(=O)O)CCN(CC(=O)O)CC2)C(N)=O)NC(=O)[C@H](CC(=O)O)NC(=O)[C@H](Cc2cnc[nH]2)NC(=O)[C@H](Cc2ccc3ccccc3c2)NC(=O)[C@H](CC(N)=O)NC(=O)[C@H](CC(N)=O)NC1=O", "note": "(stereo partly drawn) [compound 329, Ac-W-T-I-C(1)-N-N-(2Nal)-H-D-C(1)-W-P-[L-Lys(DOTA)]-NH2] (Ac-WTICNN[2Nal]HDCW[ξP]K(DOTA)-NH2; linker 4-10 via CH2)", "pKd": "> 9.00"},
      {"smiles": "CC[C@H](C)[C@H](NC(=O)[C@@H](NC(=O)[C@H](Cc1c[nH]c2c(C)cccc12)NC(C)=O)[C@@H](C)O)C(=O)N[C@H]1CSCSC[C@@H](C(=O)N[C@@H](Cc2c[nH]c3ccccc23)C(=O)N2CCCC2C(=O)N[C@H](CCCCNC(=O)CN2CCN(CC(=O)O)CCN(CC(=O)O)CCN(CC(=O)O)CC2)C(N)=O)NC(=O)[C@H](CC(=O)O)NC(=O)[C@H](Cc2cnc[nH]2)NC(=O)[C@H](Cc2ccc3ccccc3c2)NC(=O)[C@H](CC(N)=O)NC(=O)[C@H](CC(N)=O)NC1=O", "note": "(stereo partly drawn) [compound 330, Ac-7MeW-T-I-C(1)-N-N-(2Nal)-H-D-C(1)-W-P-[D-Lys(DOTA)]-NH2] (Ac-[Trp(7-Me)]TICNN[2Nal]HDCW[ξP][dK](DOTA)-NH2; linker 4-10 via CH2)", "pKd": "> 9.00"},
      {"smiles": "CC[C@H](C)[C@H](NC(=O)[C@@H](NC(=O)[C@H](Cc1c[nH]c2c(OC)cccc12)NC(C)=O)[C@@H](C)O)C(=O)N[C@H]1CSSC[C@@H](C(=O)N[C@@H](Cc2c[nH]c3ccccc23)C(=O)N2CCC[C@H]2C(=O)N[C@H](CCCCNC(=O)CN2CCN(CC(=O)O)CCN(CC(=O)O)CCN(CC(=O)O)CC2)C(N)=O)NC(=O)[C@H](CC(=O)O)NC(=O)[C@H](Cc2cnc[nH]2)NC(=O)[C@H](Cc2ccc3ccccc3c2)NC(=O)[C@H](CC(N)=O)NC(=O)[C@H](CC(N)=O)NC1=O", "note": "[compound 344, Ac-(7MeO-Trp)-T-I-C(3)-N-N-W-H-D-C(3)-W-P-[D-Lys(DOTA)]-CONH2] (Ac-[Trp(7-OMe)]TICNN[2Nal]HDCWP[dK](DOTA)-NH2; disulfide 4-10)", "pKd": "> 9.00"},
      {"smiles": "CC[C@H](C)[C@H](NC(=O)[C@@H](NC(=O)[C@H](Cc1c[nH]c2ccccc12)NC(C)=O)[C@@H](C)O)C(=O)N[C@H]1CSSC[C@@H](C(=O)N[C@@H](Cc2c[nH]c3ccccc23)C(=O)N(C)[C@@H](CC(C)C)C(=O)N[C@H](CCCCNC(=O)CN2CCN(CC(=O)O)CCN(CC(=O)O)CCN(CC(=O)O)CC2)C(N)=O)NC(=O)[C@H](CC(=O)O)NC(=O)[C@H](Cc2cnc[nH]2)NC(=O)[C@H](Cc2c[nH]c3ccccc23)NC(=O)[C@H](CC(N)=O)NC(=O)[C@H](CC(N)=O)NC1=O", "note": "[compound 345, Ac-W-T-I-C(3)-N-N-W-H-D-C(3)-W-NmeL-[D-Lys(DOTA)]-NH2] (Ac-WTICNNWHDCW[NMeL][dK](DOTA)-NH2; disulfide 4-10)", "pKd": "8.00 to 9.00"},
      {"smiles": "CCCCCCCCCCCC(=O)NCCCC[C@H](NC(=O)[C@@H](NC(=O)[C@H](Cc1c[nH]c2ccccc12)NC(C)=O)[C@@H](C)O)C(=O)N[C@H]1CSSC[C@@H](C(=O)N[C@@H](Cc2c[nH]c3ccccc23)C(=O)N2CCC[C@H]2C(=O)N[C@H](CCCCNC(=O)CN2CCN(CC(=O)O)CCN(CC(=O)O)CCN(CC(=O)O)CC2)C(N)=O)NC(=O)[C@H](CC(=O)O)NC(=O)[C@H](Cc2cnc[nH]2)NC(=O)[C@H](Cc2c[nH]c3ccccc23)NC(=O)[C@H](CC(N)=O)NC(=O)[C@H](CC(N)=O)NC1=O", "note": "[compound 346, Ac-W-T-K(C12)-C(3)-N-N-W-H-D-C(3)-W-P-[D-Lys(DOTA)]-NH2] (Ac-WTK(Lauroyl)CNNWHDCWP[dK](DOTA)-NH2; disulfide 4-10)", "pKd": "7.00 to 8.00"},
      {"smiles": "CCCCCCCCCCCCCCCC(=O)NCCCC[C@H](NC(=O)[C@@H](NC(=O)[C@H](Cc1c[nH]c2ccccc12)NC(C)=O)[C@@H](C)O)C(=O)N[C@H]1CSSC[C@@H](C(=O)N[C@@H](Cc2c[nH]c3ccccc23)C(=O)N2CCC[C@H]2C(=O)N[C@H](CCCCNC(=O)CN2CCN(CC(=O)O)CCN(CC(=O)O)CCN(CC(=O)O)CC2)C(N)=O)NC(=O)[C@H](CC(=O)O)NC(=O)[C@H](Cc2cnc[nH]2)NC(=O)[C@H](Cc2c[nH]c3ccccc23)NC(=O)[C@H](CC(N)=O)NC(=O)[C@H](CC(N)=O)NC1=O", "note": "[compound 348, Ac-W-T-K(C16)-C(3)-N-N-W-H-D-C(3)-W-P-[D-Lys(DOTA)]-NH2] (Ac-WTK(Palmitoyl)CNNWHDCWP[dK](DOTA)-NH2; disulfide 4-10)", "pKd": "6.52 to 7.00"},
      {"smiles": "CC[C@H](C)[C@H](NC(=O)[C@@H](NC(=O)[C@H](Cc1c[nH]c2ccccc12)NC(=O)CCCCCCCCCCC(=O)O)[C@@H](C)O)C(=O)N[C@H]1CSSC[C@@H](C(=O)N[C@@H](Cc2c[nH]c3ccccc23)C(=O)N2CCC[C@H]2C(=O)N[C@H](CCCCNC(=O)CN2CCN(CC(=O)O)CCN(CC(=O)O)CCN(CC(=O)O)CC2)C(N)=O)NC(=O)[C@H](CC(=O)O)NC(=O)[C@H](Cc2cnc[nH]2)NC(=O)[C@H](Cc2c[nH]c3ccccc23)NC(=O)[C@H](CC(N)=O)NC(=O)[C@H](CC(N)=O)NC1=O", "note": "[compound 349, C12OH-W-T-I-C(3)-N-N-W-H-D-C(3)-W-P-[D-Lys(DOTA)]-NH2] ({C12 diacid}-WTICNNWHDCWP[dK](DOTA)-NH2; disulfide 4-10)", "pKd": "8.00 to 9.00"},
      {"smiles": "CC[C@H](C)[C@H](NC(=O)[C@@H](NC(=O)[C@H](Cc1c[nH]c2ccccc12)NC(C)=O)[C@@H](C)O)C(=O)N[C@H]1CSSC[C@@H](C(=O)N[C@@H](Cc2c[nH]c3ccccc23)C(=O)N(C)[C@@H](CCCCNC(=O)CN2CCN(CC(=O)O)CCN(CC(=O)O)CCN(CC(=O)O)CC2)C(N)=O)NC(=O)[C@H](CC(=O)O)NC(=O)[C@H](Cc2cnc[nH]2)NC(=O)[C@H](Cc2ccc3ccccc3c2)NC(=O)[C@H](CC(N)=O)NC(=O)[C@H](CC(N)=O)NC1=O", "note": "[compound 352, Ac-W-T-I-C(3)-N-N-(2Nal)-H-D-C(3)-W-[NmeK(DOTA)]-NH2] (Ac-WTICNN[2Nal]HDCW[NMeK](DOTA)-NH2; disulfide 4-10)", "pKd": "> 9.00"}
    ]}
  ]
}
